Key:
[1] = biological target: T1, purified human vWF (Homo sapiens, UniProt P04275+P07996); assay: ELISA of salt-resistant complexes between TSP-1 and vWF; type: binding
T1 construct: Purified vWF from human plasma was obtained from the Baker Medical Research Institute; TSP-1 was purified to homogeneity from pooled outdated human platelet concentrates; tissue Baker Medical Research Institute, Melbourne (vWF); host or cells: human plasma (vWF); human platelet concentrates (TSP-1)
From the text: The first step in reduction of a disulfide bond is nucleophilic attack on the substrate disulfide bond by a reductant thiol which results in formation of a disulfide-linked complex between the substrate and the reductant. Release of the reductant from the complex requires nucleophilic attack on the disulfide linkage by another thiol, usually of the reductant. We reasoned that N-ethylmaleimide (NEM, Sigma, St. Louis, Mo.) might trap intermediate covalent complexes of TSP-1 and vWF by blocking the TSP-1 thiol responsible for separating TSP-1 and vWF. Maleimides react rapidly and specifically with cysteine thiols at neutral pH. This prediction was tested by measuring formation of salt-resistant complexes between TSP-1 and vWF and the effect of the thiol-blocking reagent, NEM, on complex formation.
Purified vWF from human plasma was obtained from the Baker Medical Research Institute, Melbourne and was purified according to Booth et at. (1984). The vWF (100 μl of 5 μg per ml in 0.1M NaHCO3, pH 8.3 buffer) was adsorbed to Nunc PolySorp 96 well plates overnight at 4° C. in a humid environment. […] Wells were washed three times with Hepes buffer and the peroxidase detected as described previously (Favaloro et al., 1991). […]

[2] = pH 8; cited from earlier work
[3] = biological target: purified vWF (Homo sapiens, UniProt P04275); assay: Effect of purified reductants or thiol reagents on the average multimer size of purified vWF (agarose gel electrophoresis); type: biochemical; parameters: Purified vWF from human plasma was obtained from the Baker Medical Research Institute; tissue Baker Medical Research Institute, Melbourne; host or cells: human plasma; details: incubation of vWF with IAM or NEM alone
[4] = tested on: vWF depolymerizing activity of BAECcm; assay: Inhibitor profile of the vWF depolymerizing activity of BAEC conditioned medium; type: biochemical; details: measured by agarose gel electrophoresis or collagen binding; BAECcm treated with agent
[5] = biological target: T2, plasma vWF (Mus musculus, UniProt Q8CIZ8); assay: Reduction in the average multimer size of vWF by TSP-1 in vivo; details: Balb c mice; 1 mg per kg intraperitoneal; plasma 24 hours later; p<0.05 vs buffer vehicle
T2 construct: from tissue; host or cells: plasma of Balb c mice (in vivo)
Protocol: The ability of TSP-1 to reduce the average multimer size of vWF in vivo was examined by administering TSP-1 to mice via intraperitoneal injection and measuring the consequence for the average multimer size of plasma vWF. Balb c mice (7 to 9 weeks of age) were administered either buffer vehicle (n=4) or 1 mg per kg purified human platelet TSP-1 (n=4) via 0.1 ml intraperitoneal injections. There were 2 male and 2 female mice in each group. Blood was collected by cardiac puncture into EDTA 24 hours later and the plasma was analyzed in triplicate for vWF antigen levels and collagen binding affinity.

[6] = biological target: T3, vWF (Homo sapiens, UniProt P04275); assay: Reduction in average multimer size of vWF in TTP plasma (agarose gel, collagen binding/vWF antigen); type: biochemical; details: plasma from a patient with TTP
T3 construct: from tissue; host or cells: plasma of a TTP patient (vWF); human platelet concentrates (TSP-1)
Protocol: TTP plasma was incubated with 20 mM Hepes, 0.14M NaCl, 1 mM CaCl2, 1 mM MgCl2, pH 7.4 buffer, conditioned media of HMEC-1 cells or the Hepes buffer containing TSP-1 for 1 or 24 hours at 37° C. Aliquots of the reactions were diluted 10-fold in the Hepes buffer and assayed for collagen binding affinity and vWF antigen as described by Favaloro et al. (1991). On some occasions, aliquots of the reactions were resolved on 1% agarose gel electrophoresis (Ruggeri and Zimmerman, 1980), transferred to PVDF membrane (DuPont NEN, Boston, Mass.), blotted with 2 μg per ml of horse radish peroxidase conjugated anti-vWF polyclonal antibodies (DAKO Corporation, Carpinteria, Calif.) and visualized using chemiluminescence (DuPont NEN, Boston, Mass.).
TSP-1 is a major component of platelet α-granules which is secreted upon platelet activation and aggregation. TSP-1 was purified to homogeneity from pooled outdated human platelet concentrates (Murphy-Ullrich and Mosher. 1985; Hogg et al., 1997) and tested for vWF reductase activity. Buffers containing 0.1 mM CaCl2 were used throughout the chromatographic purification of TSP1. […] In particular, the very large multimers were lost (see bracket in FIG. 3A). […] TSP-1-mediated reduction in vWF multimer size was concentration- and time-dependent (FIG. 3B). Three different preparations of platelet TSP-1 had the same vWF reducing activity (not shown). It is noteworthy that the molar ratio of TSP-1 to vWF influenced the extent of reduction in vWF multimer size (FIG. 3B). The vWF reductase activity in endothelial cell conditioned medium is inhibited by EDTA. In accordance with this observation, chelation of Ca^2+ with EDTA ablated the vWF reductase activity of TSP-1 (not shown).

T2 sequence (Q8CIZ8 764-2813 limits assumed): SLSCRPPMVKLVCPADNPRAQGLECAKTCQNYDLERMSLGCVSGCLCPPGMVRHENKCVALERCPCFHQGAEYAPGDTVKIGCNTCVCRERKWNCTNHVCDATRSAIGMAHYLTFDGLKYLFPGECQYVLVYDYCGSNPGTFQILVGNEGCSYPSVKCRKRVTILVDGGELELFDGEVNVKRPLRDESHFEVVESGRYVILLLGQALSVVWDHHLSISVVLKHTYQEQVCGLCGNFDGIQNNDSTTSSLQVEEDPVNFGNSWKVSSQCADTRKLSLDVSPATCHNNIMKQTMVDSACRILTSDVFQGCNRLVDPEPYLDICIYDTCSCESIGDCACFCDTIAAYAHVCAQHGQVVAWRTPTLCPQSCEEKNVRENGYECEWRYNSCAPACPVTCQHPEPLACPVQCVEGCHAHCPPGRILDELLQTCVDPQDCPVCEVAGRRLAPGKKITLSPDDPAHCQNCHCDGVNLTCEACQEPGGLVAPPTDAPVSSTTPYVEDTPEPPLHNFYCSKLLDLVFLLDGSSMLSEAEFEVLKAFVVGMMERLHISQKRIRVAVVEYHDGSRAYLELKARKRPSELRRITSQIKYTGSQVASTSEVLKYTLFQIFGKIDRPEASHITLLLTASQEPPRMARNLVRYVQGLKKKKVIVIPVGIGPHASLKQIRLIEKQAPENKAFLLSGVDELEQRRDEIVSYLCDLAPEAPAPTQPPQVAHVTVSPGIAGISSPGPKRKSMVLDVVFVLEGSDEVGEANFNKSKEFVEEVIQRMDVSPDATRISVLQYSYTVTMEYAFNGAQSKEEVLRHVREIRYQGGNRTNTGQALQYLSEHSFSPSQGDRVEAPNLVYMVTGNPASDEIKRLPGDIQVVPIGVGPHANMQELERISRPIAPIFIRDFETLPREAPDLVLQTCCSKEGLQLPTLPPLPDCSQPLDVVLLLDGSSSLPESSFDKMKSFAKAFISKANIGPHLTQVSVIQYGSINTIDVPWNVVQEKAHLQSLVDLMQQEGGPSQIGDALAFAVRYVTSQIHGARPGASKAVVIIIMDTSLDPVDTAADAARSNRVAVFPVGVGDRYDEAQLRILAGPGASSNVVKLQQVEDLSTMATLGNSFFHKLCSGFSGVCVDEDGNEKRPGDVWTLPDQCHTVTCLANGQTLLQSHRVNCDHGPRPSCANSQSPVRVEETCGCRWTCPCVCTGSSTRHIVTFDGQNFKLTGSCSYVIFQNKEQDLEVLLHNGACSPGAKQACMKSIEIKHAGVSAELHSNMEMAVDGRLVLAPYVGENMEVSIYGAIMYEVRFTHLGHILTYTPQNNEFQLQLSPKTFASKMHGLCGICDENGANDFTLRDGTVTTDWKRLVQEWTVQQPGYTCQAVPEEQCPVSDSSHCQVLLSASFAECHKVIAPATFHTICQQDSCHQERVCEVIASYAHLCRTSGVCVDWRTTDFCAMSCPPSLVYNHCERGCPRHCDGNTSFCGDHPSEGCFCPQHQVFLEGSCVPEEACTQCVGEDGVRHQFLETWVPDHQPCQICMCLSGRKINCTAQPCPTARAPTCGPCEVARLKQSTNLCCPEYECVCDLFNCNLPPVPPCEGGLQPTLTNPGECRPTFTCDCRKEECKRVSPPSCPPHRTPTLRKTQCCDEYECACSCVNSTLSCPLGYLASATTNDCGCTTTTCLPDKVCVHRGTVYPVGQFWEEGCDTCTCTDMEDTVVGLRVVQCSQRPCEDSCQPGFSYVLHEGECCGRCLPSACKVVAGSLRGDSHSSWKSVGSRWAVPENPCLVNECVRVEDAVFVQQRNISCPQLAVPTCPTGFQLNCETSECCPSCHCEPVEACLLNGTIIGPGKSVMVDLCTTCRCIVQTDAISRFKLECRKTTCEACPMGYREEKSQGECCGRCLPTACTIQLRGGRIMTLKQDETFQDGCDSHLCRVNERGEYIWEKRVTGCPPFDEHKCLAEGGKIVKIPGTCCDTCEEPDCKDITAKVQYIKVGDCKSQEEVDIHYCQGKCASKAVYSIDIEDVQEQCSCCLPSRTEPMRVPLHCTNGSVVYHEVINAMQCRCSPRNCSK

Compound | fold more TSP-1 bound to vWF in the presence of NEM ([1]; 5 or 20 mM NEM, TSP-1 0 to 10 μg per ml, 30 minutes at room temperature, 1M NaCl wash) | second order rate constant of reaction with free thiols [2] | effect on average multimer size of vWF [3] | effect on vWF depolymerizing activity of BAECcm [4] | binding of TSP-1 to wells not coated with vWF ([1]; 10 μg per ml TSP-1, wells blocked with BSA) | CBA/vWFAg (average multimer size of plasma vWF) [5] | effect on average multimer size of vWF ([6]; 37° C., agarose gel electrophoresis) | effect on affinity of vWF for collagen ([6]; collagen binding relative to vWF antigen)
CCN1C(=O)C=CC1=O [NEM, N-ethylmaleimide] | Up to 8 fold | ~10^4 M^−1s^−1 | did not have any discernible effect | inactivated |  |  |  | 
thrombospondin-1 [TSP-1] |  |  |  |  | no binding | 0.83±0.05 | reduced the average multimer size of vWF | decrease in affinity of vWF for collagen
